Results: ChEMBL document CHEMBL1201862, “PubChem BioAssay data set” (2004)
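Cultured in 96-well plates, cells were exposed to test compound for 48 hours across five concentrations. GI50 is the concentration that inhibits growth by half.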 Active and inactive are the calls of the source. Cut-off read from the data, not from the text of the source: active = GI50 up to about 1.1 µM and inactive = higher.

Assays:
Assay in all cases: NCI anticancer screen, dose series, 48 h
HCT-116 = system: HCT-116
OVCAR-4 = system: OVCAR-4
A498 = system: A498
IGROV-1 = system: IGROV-1
SF-295 = system: SF-295
COLO 205 = system: COLO 205
NCI-H460 = system: NCI-H460
NCI-H23 = system: NCI-H23
CCRF-CEM = system: CCRF-CEM
TK-10 = system: TK-10
MOLT-4 = system: MOLT-4
NCI-H522 = system: NCI-H522
SF-268 = system: SF-268
HOP-62 = system: HOP-62
MCF7 = system: MCF7
OVCAR-5 = system: OVCAR-5
LOX IMVI = system: LOX IMVI
UACC-62 = system: UACC-62
PC-3 = system: PC-3
HOP-92 = system: HOP-92
CAKI-1 = system: CAKI-1
RPMI-8226 = system: RPMI-8226
NCI-H226 = system: NCI-H226
A549 = system: A549
HL-60 = system: HL-60
SN12C = system: SN12C
DU-145 = system: DU-145
SK-MEL-2 = system: SK-MEL-2
786-0 = system: 786-0
NCI/ADR-RES = system: NCI/ADR-RES
EKVX = system: EKVX
Hs-578T = system: Hs-578T
BT-549 = system: BT-549
U-251 = system: U-251
MDA-MB-231 = system: MDA-MB-231
SW-620 = system: SW-620
HCC 2998 = system: HCC 2998
MDA-MB-435 = system: MDA-MB-435
Malme-3M = system: Malme-3M
MDA-N = system: MDA-N
UACC-257 = system: UACC-257
RXF 393 = system: RXF 393
SNB-75 = system: SNB-75
OVCAR-8 = system: OVCAR-8
SF-539 = system: SF-539
SK-MEL-28 = system: SK-MEL-28
KM12 = system: KM12
UO-31 = system: UO-31
M14 = system: M14
SNB-19 = system: SNB-19
SK-MEL-5 = system: SK-MEL-5
K562 = system: K562
HT-29 = system: HT-29
SK-OV-3 = system: SK-OV-3
T47D = system: T47D
HCT-15 = system: HCT-15
SR = system: SR
ACHN = system: ACHN
OVCAR-3 = system: OVCAR-3

Structure (SMILES): COc1cc(-c2[o+]c3cc(O)cc(O)c3cc2O)cc(O)c1O
- GI50 (HCT-116): > 100 µM (inactive)
- GI50 (OVCAR-4): 60 µM (inactive)
- GI50 (A498): > 100 µM (inactive)
- GI50 (IGROV-1): > 100 µM (inactive)
- GI50 (SF-295): > 100 µM (inactive)
- GI50 (COLO 205): > 100 µM (inactive)
- GI50 (NCI-H460): > 100 µM (inactive)
- GI50 (NCI-H23): > 100 µM (inactive)
- GI50 (CCRF-CEM): 25.9 µM (inactive)
- GI50 (TK-10): > 100 µM (inactive)
- GI50 (MOLT-4): > 100 µM (inactive)
- GI50 (NCI-H522): 66.5 µM (inactive)
- GI50 (SF-268): > 100 µM (inactive)
- GI50 (HOP-62): > 100 µM (inactive)
- GI50 (MCF7): 21.3 µM (inactive)
- GI50 (OVCAR-5): > 100 µM (inactive)
- GI50 (LOX IMVI): 55.8 µM (inactive)
- GI50 (UACC-62): > 100 µM (inactive)
- GI50 (PC-3): > 100 µM (inactive)
- GI50 (HOP-92): > 100 µM (inactive)
- GI50 (CAKI-1): > 100 µM (inactive)
- GI50 (RPMI-8226): > 100 µM (inactive)
- GI50 (NCI-H226): > 100 µM (inactive)
- GI50 (A549): > 100 µM (inactive)
- GI50 (HL-60): > 100 µM (inactive)
- GI50 (SN12C): > 100 µM (inactive)
- GI50 (DU-145): > 100 µM (inactive)
- GI50 (SK-MEL-2): > 100 µM (inactive)
- GI50 (786-0): > 100 µM (inactive)
- GI50 (NCI/ADR-RES): > 100 µM (inactive)
- GI50 (EKVX): 92.9 µM (inactive)
- GI50 (Hs-578T): > 100 µM (inactive)
- GI50 (BT-549): > 100 µM (inactive)
- GI50 (U-251): > 100 µM (inactive)
- GI50 (MDA-MB-231): > 100 µM (inactive)
- GI50 (SW-620): 30.6 µM (inactive)
- GI50 (HCC 2998): 35 µM (inactive)
- GI50 (MDA-MB-435): 19.4 µM (inactive)
- GI50 (Malme-3M): > 100 µM (inactive)
- GI50 (MDA-N): 34.8 µM (inactive)
- GI50 (UACC-257): > 100 µM (inactive)
- GI50 (RXF 393): > 100 µM (inactive)
- GI50 (SNB-75): > 100 µM (inactive)
- GI50 (OVCAR-8): > 100 µM (inactive)
- GI50 (SF-539): > 100 µM (inactive)
- GI50 (SK-MEL-28): > 100 µM (inactive)
- GI50 (KM12): > 100 µM (inactive)
- GI50 (UO-31): > 100 µM (inactive)
- GI50 (M14): > 100 µM (inactive)
- GI50 (SNB-19): > 100 µM (inactive)
- GI50 (SK-MEL-5): > 100 µM (inactive)
- GI50 (K562): > 100 µM (inactive)
- GI50 (HT-29): > 100 µM (inactive)
- GI50 (SK-OV-3): > 100 µM (inactive)
- GI50 (T47D): > 100 µM (inactive)
- GI50 (HCT-15): > 100 µM
- GI50 (SR): 96.6 µM (inactive)
- GI50 (ACHN): > 100 µM (inactive)
- GI50 (OVCAR-3): > 100 µM (inactive)

Structure (SMILES): CC(C)(C)OC(=O)NC(Cc1c[nH]cn1)C(=O)N1CCCC1C(N)=O (stereo not drawn)
- GI50 (HCT-116): > 100 µM (inactive)
- GI50 (OVCAR-4): > 100 µM (inactive)
- GI50 (A498): > 100 µM (inactive)
- GI50 (IGROV-1): > 100 µM (inactive)
- GI50 (SF-295): > 100 µM (inactive)
- GI50 (COLO 205): > 100 µM (inactive)
- GI50 (NCI-H460): > 100 µM (inactive)
- GI50 (NCI-H23): > 100 µM (inactive)
- GI50 (CCRF-CEM): > 100 µM (inactive)
- GI50 (TK-10): > 100 µM (inactive)
- GI50 (MOLT-4): > 100 µM (inactive)
- GI50 (NCI-H522): > 100 µM (inactive)
- GI50 (SF-268): > 100 µM (inactive)
- GI50 (HOP-62): > 100 µM (inactive)
- GI50 (MCF7): > 100 µM (inactive)
- GI50 (OVCAR-5): > 100 µM (inactive)
- GI50 (LOX IMVI): > 100 µM (inactive)
- GI50 (UACC-62): > 100 µM (inactive)
- GI50 (PC-3): > 100 µM (inactive)
- GI50 (HOP-92): > 100 µM (inactive)
- GI50 (CAKI-1): > 100 µM (inactive)
- GI50 (RPMI-8226): > 100 µM (inactive)
- GI50 (NCI-H226): 33.1 µM (inactive)
- GI50 (A549): > 100 µM (inactive)
- GI50 (HL-60): > 100 µM (inactive)
- GI50 (SN12C): > 100 µM (inactive)
- GI50 (DU-145): > 100 µM (inactive)
- GI50 (SK-MEL-2): > 100 µM (inactive)
- GI50 (786-0): > 100 µM (inactive)
- GI50 (NCI/ADR-RES): > 100 µM (inactive)
- GI50 (EKVX): > 100 µM (inactive)
- GI50 (Hs-578T): > 100 µM (inactive)
- GI50 (BT-549): > 100 µM (inactive)
- GI50 (U-251): > 100 µM (inactive)
- GI50 (MDA-MB-231): > 100 µM (inactive)
- GI50 (SW-620): > 100 µM (inactive)
- GI50 (HCC 2998): > 100 µM (inactive)
- GI50 (MDA-MB-435): > 100 µM (inactive)
- GI50 (Malme-3M): > 100 µM (inactive)
- GI50 (MDA-N): > 100 µM (inactive)
- GI50 (UACC-257): > 100 µM (inactive)
- GI50 (RXF 393): 2.17 µM (inactive)
- GI50 (SNB-75): > 100 µM (inactive)
- GI50 (OVCAR-8): > 100 µM (inactive)
- GI50 (SF-539): > 100 µM (inactive)
- GI50 (SK-MEL-28): > 100 µM (inactive)
- GI50 (KM12): > 100 µM (inactive)
- GI50 (UO-31): > 100 µM (inactive)
- GI50 (M14): > 100 µM (inactive)
- GI50 (SNB-19): > 100 µM (inactive)
- GI50 (SK-MEL-5): > 100 µM (inactive)
- GI50 (K562): > 100 µM (inactive)
- GI50 (HT-29): > 100 µM (inactive)
- GI50 (SK-OV-3): > 100 µM (inactive)
- GI50 (T47D): > 100 µM (inactive)
- GI50 (HCT-15): > 100 µM
- GI50 (SR): > 100 µM (inactive)
- GI50 (ACHN): > 100 µM (inactive)
- GI50 (OVCAR-3): > 100 µM (inactive)
